Measured values from patent US10828300B2, “Substituted 2,4-diaminopyrimidines as kinase inhibitors” (Celgene CAR LLC, priority 2008, dated 2020).
“Also recorded” adds a separate entry of the source.

Key:
TEC kinase = TEC kinase (Homo sapiens (Human), UniProt P42680); experiment: Mass spectrometry for TEC kinase (tryptic digest); format: binding, Homo sapien; conditions: 3 hrs at 10× excess, peptide GCLLNFLR
Procedure: Mass Spectrometry for TEC Kinase (Compound I-2)
TEC kinase (45 pmols; Invitrogen) was incubated with (I-2) (450 pmols) for 3 hrs at 10× excess prior to tryptic digestion. Iodoacetamide was used as the alkylating agent after compound incubation. […] For tryptic digests a 5 ul aliquot (7.5 pmols) was diluted with 15 ul of 0.1% TFA prior to micro C18 Zip Tipping directly onto the MALDI target using alpha cyano-4-hydroxy cinnamic acid as the matrix (5 mg/ml in 0.1% TFA:Acetonitrile 50:50).
(§1) For tryptic digests the instrument was set in Reflectron mode with a pulsed extraction setting of 2200. Calibration was done using the Laser Biolabs Pep Mix standard ([…], 1296.69, 1672.92, 2093.09, 2465.20). For CID/PSD analysis the peptide was selected using cursors to set ion gate timing and fragmentation occurred at a laser power about 20% higher and He was used as the collision gas for CID. Calibration for fragments was done using the P14R fragmentation calibration for the Curved field Reflectron.
Mass Spectrometry for TEC Kinase (Compound I-4)
TEC kinase (45 pmols; Invitrogen) was incubated with (I-4) (450 pmols) for 3 hrs at 10× excess prior to tryptic digestion. Iodoacetamide was used as the alkylating agent after compound incubation. […] For tryptic digests a 5 ul aliquot (7.5 pmols) was diluted with 15 ul of 0.1% TFA prior to micro C18 Zip Tipping directly onto the MALDI target using alpha cyano-4-hydroxy cinnamic acid as the matrix (5 mg/ml in 0.1% TFA:Acetonitrile 50:50).
For tryptic digests the instrument was set in Reflectron mode with a pulsed extraction setting of 1800. Calibration was done using the Laser Biolabs Pep Mix standard ([…], 1296.69, 1672.92, 2093.09, 2465.20). For CID/PSD analysis the peptide was selected using cursors to set ion gate timing and fragmentation occurred at a laser power about 20% higher and He was used as the collision gas for CID. Calibration for fragments was done using the P14R fragmentation calibration for the Curved field Reflectron.
Mass Spectrometry for TEC Kinase (Compound I-7) […]

Erbb4 kinase domain = Erbb4 kinase domain (Homo sapiens (Human), UniProt Q15303); experiment: Mass spectrometry for ERBB4 (intact protein); format: binding; conditions: 60 minutes at 10-fold excess of compound
Sequence of Erbb4 kinase domain (Q15303 718-985): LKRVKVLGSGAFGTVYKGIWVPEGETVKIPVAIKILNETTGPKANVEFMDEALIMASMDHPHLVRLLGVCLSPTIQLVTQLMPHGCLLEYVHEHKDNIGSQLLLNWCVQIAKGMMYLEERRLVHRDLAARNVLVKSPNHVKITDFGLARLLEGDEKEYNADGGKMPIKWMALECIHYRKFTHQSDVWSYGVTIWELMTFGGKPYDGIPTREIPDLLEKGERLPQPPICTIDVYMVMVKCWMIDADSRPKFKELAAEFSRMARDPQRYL
Procedure: Mass Spectrometry for ERBB4
Erbb4 kinase domain (Upstate) was incubated with compound for 60 minutes at 10-fold excess of compound I-4 and I-11 to protein. 1 μl aliquots of the samples (total volume of 4.24 ul) were diluted with 10 μl of 0.1% TFA prior to micro C4 ZipTipping directly onto the MALDI target using Sinapinic acid as the desorption matrix (10 mg/ml in 0.1% TFA:Acetonitrile 50:50). For intact protein mass measurement the instrument was set in Linear mode using a pulsed extraction setting of 16,952 for the myoglobin standard used to calibrate the instrument (Shimadzu Axima TOF^2).
Intact ErbB4 protein occurs at MH+ of 35850 with corresponding sinapinic (matrix) adducts occurring about 200 Da higher. A stochiometric incorporation of the test compound (I-4 and I-11) (Mw of 410 Da) produced a new mass peak which is approximately 410 Da higher (MH+ of 36260).

BTK [1] = target: T1, BTK (Homo sapiens (Human), UniProt Q06187); experiment: Washout experiment with Ramos cells (PLCγ2 phosphorylation); format: cell-based; conditions: Ramos washout assay, 100 nM compound for 1 hour
T1 sequence (Q06187 whole entry): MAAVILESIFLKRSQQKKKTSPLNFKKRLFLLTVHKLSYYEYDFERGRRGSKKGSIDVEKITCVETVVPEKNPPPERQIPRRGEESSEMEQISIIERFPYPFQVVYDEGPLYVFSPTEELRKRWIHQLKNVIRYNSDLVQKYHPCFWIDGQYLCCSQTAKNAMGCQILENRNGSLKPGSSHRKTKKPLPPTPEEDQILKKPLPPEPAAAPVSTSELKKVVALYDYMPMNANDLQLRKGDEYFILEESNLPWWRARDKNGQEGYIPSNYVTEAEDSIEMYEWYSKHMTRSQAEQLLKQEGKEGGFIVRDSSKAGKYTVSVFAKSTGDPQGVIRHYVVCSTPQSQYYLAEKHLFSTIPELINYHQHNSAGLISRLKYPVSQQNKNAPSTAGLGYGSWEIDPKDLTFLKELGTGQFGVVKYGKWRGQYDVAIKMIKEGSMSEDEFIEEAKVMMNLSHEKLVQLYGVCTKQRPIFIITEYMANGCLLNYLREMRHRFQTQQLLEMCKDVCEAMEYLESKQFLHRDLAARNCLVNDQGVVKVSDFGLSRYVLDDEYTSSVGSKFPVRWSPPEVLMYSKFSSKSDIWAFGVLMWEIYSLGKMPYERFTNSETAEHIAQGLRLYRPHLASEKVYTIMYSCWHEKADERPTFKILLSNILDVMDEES
Procedure: Washout Experiment with Ramos Cells
Ramos cells were serum starved for one hour in RPMI media +1% glutamine at 37° C. After starvation, Ramos cells were treated with 100 nM compound diluted in serum free RPMI media for 1 hour. After compound treatment, the media was removed and cells were washed with compound-free media. Subsequently, Ramos cells were washed every 2 hours and resuspended in fresh compound-free media. Cells were collected at specified timepoints, treated with 1 ug anti-human IgM (Southern Biotech cat #2022-01) for 10 minutes on ice to induce BCR signaling and then washed in PBS. Ramos cells were then lysed in Cell Extraction Buffer (Invitrogen FNN0011) supplemented with Roche complete protease inhibitor tablets (Roche 11697498001) and phosphatase inhibitors (Roche 04 906 837 001) and 18 ug total protein lysate was loaded in each lane. Inhibition of BTK kinase activity was assayed by measuring its substrate (PLCγ2) phosphorylation by western blot with phospho-specific antibodies from Cell Signaling Technologies cat#3871. The results of this experiment with compounds I-2, I-4 and I-7 are depicted in FIGS. 1, 2 and 3.

JAK3 kinase = JAK3 kinase (Homo sapiens (Human), UniProt P52333); experiment: Mass spectrometry for Janus-3 kinase (JAK3), tryptic digest; format: binding, homosapien; conditions: 3 hrs at 10× excess, peptide LVMEYLPSGCLR
Sequence of JAK3 kinase (P52333 whole entry): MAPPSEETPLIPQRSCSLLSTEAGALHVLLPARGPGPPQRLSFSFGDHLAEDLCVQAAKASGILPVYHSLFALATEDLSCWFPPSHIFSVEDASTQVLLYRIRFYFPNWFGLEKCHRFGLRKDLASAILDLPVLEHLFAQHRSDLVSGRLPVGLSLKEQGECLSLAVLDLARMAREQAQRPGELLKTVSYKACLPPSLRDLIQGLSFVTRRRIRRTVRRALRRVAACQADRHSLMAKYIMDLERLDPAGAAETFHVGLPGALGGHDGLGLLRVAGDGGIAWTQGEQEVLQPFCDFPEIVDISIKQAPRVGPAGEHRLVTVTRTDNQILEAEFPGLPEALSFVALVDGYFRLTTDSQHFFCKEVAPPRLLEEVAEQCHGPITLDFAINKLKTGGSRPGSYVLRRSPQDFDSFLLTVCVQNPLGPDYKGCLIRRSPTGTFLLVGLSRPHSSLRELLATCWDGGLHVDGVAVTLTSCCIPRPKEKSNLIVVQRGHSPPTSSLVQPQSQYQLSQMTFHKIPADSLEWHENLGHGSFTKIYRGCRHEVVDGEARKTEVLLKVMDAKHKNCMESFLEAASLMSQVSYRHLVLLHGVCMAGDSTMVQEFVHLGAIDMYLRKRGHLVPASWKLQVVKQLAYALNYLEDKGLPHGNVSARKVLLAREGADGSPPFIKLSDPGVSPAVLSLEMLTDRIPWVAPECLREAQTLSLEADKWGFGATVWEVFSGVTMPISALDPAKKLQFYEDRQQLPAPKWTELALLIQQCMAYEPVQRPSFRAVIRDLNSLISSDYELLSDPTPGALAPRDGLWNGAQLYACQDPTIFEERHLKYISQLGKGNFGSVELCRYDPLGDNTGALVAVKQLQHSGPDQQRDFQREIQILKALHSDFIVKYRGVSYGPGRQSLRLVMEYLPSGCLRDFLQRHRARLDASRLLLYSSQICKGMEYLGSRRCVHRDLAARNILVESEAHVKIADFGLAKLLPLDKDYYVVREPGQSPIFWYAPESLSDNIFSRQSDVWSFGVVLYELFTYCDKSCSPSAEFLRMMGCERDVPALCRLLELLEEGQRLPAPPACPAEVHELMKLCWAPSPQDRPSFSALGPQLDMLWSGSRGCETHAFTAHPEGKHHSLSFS
Procedure: Mass Spectrometry for Janus-3 Kinase (JAK3)
JAK3 kinase (33 pmols; Invitrogen) was incubated with (I-7) (327 pmols) for 3 hrs at 10× excess prior to tryptic digestion. Iodoacetamide was used as the alkylating agent after compound incubation. For tryptic digests a 5 ul aliquot (5.5 pmols) was diluted with 15 ul of 0.1% TFA prior to micro C18 Zip Tipping directly onto the MALDI target using alpha cyano-4-hydroxy cinnamic acid as the matrix (5 mg/ml in 0.1% TFA:Acetonitrile 50:50).
as §1

BTK [2] = target: T1, BTK; experiment: Washout experiment with I-7 and probe compound I-215 in Ramos cells; format: cell-based; conditions: 0.1 μM for 1 hour, then washout, probe I-215
Procedure: Washout Experiment with I-7 and Probe Compound I-215
Ramos cells were incubated with 0.1 μM I-7 or a reversible BTK inhibitor control compound in serum free media for 1 hour at 37° C. The cells were then washed in compound-free media and lysed 0, 4, 6, or 8 hours after compound removal. Cell lysates were incubated with 1 μM I-215 for 1 hour at room temperature, then overnight at 4° C. with streptavidin-coupled agarose beads. Protein was boiled off the beads and BTK association was assessed by western blot. […] In contrast, with the reversible inhibitor control, 45% of BTK protein is unbound and available to the probe at 0 hours and by 4 hours 100% of BTK protein is unbound and available to bind the probe. All samples were normalized to the DMSO-treated cells harvested at 0 hours.

BTK [3] = target: T1, BTK; experiment: Mass spectrometry for BTK (intact protein, covalent modification); format: binding
Procedure: Mass Spectrometry for BTK
Intact BTK was incubated for 1 hr at a 10× fold excess of I-7 to protein. Aliquots (2 μl) of the samples were diluted with 10 μl of 0.1% TFA prior to micro C4 ZipTipping directly onto the MALDI target using Sinapinic acid as the desorption matrix (10 mg/ml in 0.1% TFA:Acetonitrile 20:80).

BTK [4] = target: T1, BTK; experiment: BTK occupancy from in vitro samples by ELISA (Ramos cells, probe I-215); format: cell-based; conditions: probe I-215 ELISA
Source text: Measuring BTK occupancy from in vitro samples by ELISA
In order to determine the amount of free BTK in cell or tissue lysates, an ELISA protocol was employed that utilizes a biotinylated probe compound that binds only to free, unoccupied BTK. The conjugated biotin is captured on a streptavidin-coated ELISA plate and detected with a mouse anti-BTK antibody (Becton Dickinson, Franklin Lakes, N.J., USA) and a secondary goat anti-mouse HRP antibody (Zymed, South San Francisco, Calif., USA).
All samples were prepared with equal concentrations of Biorad lysis buffer (Hercules, Calif., USA), 0.5% bovine serum albumin in PBS with 0.05% Tween-20 to give a final concentration of 1 μM I-215. Samples were incubated in a mixing plate for 1 hr at room temperature while shaking to allow probe compound I-215 to bind to free BTK. After incubation with I-215, samples were added to a washed, streptavidin-coated ELISA plate (Pierce, Rockford, Ill., USA) and incubated for 1 hr at room temperature while shaking. The plate was then washed with PBS containing 0.05% Tween-20 using an automatic plate washer. Anti-BTK antibody was prepared at 1:1000 dilution in 0.5% BSA in PBS (0.05% Tween-20) and added to the ELISA plate. The plate was incubated for 1 hr at room temperature while shaking. The plate was washed as described above and the secondary HRP antibody was prepared at 1:5000 dilution in 0.5% BSA in PBS (0.05% Tween-20). The plate was incubated and washed as described above. TMB was added to the plate, and OD650 was monitored until reaching 1 OD unit. The reaction was then stopped with addition of H2SO4. The plate was analyzed using Gen 5 software, and a 4 Parameter Logistic curve was employed to quantitate samples. Recombinant BTK (Invitrogen, Carlsbad, Calif., USA) was used for the standard curve.
A concentration designated as “A” is greater than 1 nM; a concentration designated as “B” is greater than 10 nM; and a concentration designated as “C” is greater than 50 nM.

BTK [5] = target: T1, BTK; experiment: Omnia assay protocol for potency assessment against BTK; format: biochemical
Source text: Omnia Assay Protocol for Potency Assessment Against BTK

EGFR-WT = EGFR-WT (Homo sapiens (Human), UniProt P00533); experiment: Omnia assay for potency assessment against EGFR (WT); format: biochemical; conditions: read-out: EGFR Wild Type Inhibition
Sequence of EGFR-WT (P00533 25-1210): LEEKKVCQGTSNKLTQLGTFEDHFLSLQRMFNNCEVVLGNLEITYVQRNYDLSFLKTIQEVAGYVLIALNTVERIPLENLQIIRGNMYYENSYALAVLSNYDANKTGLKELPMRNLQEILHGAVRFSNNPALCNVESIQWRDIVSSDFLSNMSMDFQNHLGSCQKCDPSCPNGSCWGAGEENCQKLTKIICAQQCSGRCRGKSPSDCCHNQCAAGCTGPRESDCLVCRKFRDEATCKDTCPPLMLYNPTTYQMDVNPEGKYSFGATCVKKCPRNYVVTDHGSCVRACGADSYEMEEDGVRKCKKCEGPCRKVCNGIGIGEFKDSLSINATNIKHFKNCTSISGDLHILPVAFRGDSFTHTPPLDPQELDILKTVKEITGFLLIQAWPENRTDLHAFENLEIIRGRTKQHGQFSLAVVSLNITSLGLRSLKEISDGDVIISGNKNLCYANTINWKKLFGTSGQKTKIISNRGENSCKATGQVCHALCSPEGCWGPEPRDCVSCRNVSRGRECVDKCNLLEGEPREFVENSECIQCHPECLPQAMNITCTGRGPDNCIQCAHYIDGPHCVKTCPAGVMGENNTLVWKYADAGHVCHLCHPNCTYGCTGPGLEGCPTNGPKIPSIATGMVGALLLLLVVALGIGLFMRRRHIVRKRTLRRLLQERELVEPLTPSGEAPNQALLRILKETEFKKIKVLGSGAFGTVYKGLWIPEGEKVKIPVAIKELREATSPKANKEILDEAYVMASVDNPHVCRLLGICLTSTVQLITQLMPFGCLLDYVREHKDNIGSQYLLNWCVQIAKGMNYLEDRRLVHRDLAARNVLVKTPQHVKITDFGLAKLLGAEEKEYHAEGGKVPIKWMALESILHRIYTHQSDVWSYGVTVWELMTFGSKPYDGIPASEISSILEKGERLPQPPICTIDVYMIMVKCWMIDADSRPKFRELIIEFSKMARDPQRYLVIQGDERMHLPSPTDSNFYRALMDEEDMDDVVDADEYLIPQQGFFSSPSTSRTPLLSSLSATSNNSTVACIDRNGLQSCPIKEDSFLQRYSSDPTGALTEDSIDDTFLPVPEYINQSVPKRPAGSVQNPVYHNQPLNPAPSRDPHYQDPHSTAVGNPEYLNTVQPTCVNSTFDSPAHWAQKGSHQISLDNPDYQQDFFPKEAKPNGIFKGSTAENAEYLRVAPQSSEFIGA

BTK [6] = target: T1, BTK; experiment: BTK Ramos cellular assay (phosphorylation of BTK substrate PLCγ2); format: cell-based; conditions: Ramos cells, anti-IgM stimulated, read-out: BTK Inhibition (BTK Ramos Cellular Inhibition Data)
Procedure: Ramos cells were grown in suspension in T225 flasks, spun down, resuspended in 50 ml serum-free media and incubated for 1 hour. […] Ramos cells were incubated with compound for 1 hour, washed again and resuspended in 100 ul serum-free media. Cells were then stimulated with 1 μg of goat F(ab′)2 Anti-Human IgM and incubated on ice for 10 minutes to activate B cell receptor signaling pathways. After 10 minutes, the cells were washed once with PBS and then lysed on ice with Invitrogen Cell Extraction buffer. 16 μg total protein from lysates were loaded on gel and blots were probed for phosphorylation of the BTK substrate PLCγ2.

ITK = ITK (Homo sapiens (Human), UniProt Q08881); experiment: Omnia assay for potency assessment against active forms of ITK kinase; format: biochemical; conditions: [ITK]=10 nM, [ATP]=25 μM, [Y6-Sox]=10 μM; read-out: ITK Inhibition
Sequence of ITK (Q08881 whole entry): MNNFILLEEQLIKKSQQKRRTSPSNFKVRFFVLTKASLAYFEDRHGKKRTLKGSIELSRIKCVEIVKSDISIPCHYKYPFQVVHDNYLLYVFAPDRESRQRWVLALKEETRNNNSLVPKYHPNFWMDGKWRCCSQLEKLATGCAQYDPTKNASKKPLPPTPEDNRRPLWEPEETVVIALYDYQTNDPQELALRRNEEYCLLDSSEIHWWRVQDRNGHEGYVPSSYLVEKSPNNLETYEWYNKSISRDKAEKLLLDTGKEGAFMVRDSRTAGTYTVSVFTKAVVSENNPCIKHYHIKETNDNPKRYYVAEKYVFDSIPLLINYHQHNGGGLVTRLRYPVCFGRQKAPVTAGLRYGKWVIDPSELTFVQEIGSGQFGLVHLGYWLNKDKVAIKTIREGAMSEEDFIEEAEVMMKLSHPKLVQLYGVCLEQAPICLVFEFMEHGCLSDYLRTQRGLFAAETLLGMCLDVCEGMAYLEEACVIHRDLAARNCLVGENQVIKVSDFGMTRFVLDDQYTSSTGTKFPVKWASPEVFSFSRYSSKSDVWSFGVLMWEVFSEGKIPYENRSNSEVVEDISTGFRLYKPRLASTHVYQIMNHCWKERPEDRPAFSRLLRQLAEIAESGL

Sequence of TEC kinase (P42680 whole entry): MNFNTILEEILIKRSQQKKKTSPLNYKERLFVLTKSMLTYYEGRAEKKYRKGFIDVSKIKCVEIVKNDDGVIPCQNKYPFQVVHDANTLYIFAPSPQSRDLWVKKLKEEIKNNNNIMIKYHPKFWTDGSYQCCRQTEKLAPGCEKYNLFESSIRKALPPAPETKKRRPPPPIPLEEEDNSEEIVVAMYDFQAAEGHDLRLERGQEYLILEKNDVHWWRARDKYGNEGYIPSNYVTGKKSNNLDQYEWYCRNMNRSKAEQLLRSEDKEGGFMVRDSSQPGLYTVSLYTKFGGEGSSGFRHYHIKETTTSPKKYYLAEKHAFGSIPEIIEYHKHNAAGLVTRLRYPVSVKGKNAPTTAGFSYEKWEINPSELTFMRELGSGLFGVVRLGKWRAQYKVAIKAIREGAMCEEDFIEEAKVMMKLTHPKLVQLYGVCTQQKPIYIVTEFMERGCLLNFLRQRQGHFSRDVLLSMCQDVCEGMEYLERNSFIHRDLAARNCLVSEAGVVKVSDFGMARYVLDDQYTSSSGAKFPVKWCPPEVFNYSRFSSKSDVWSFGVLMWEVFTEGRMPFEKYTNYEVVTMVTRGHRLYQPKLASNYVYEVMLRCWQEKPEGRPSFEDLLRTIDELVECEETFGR

Cc1cccc(Nc2nc(Nc3cccc(NC(=O)/C=C/CN(C)C)c3)ncc2F)c1 [Compound I-4, (E)-4-(dimethylamino)-N-(3-(5-fluoro-4-(m-tolylamino)pyrimidin-2-ylamino)phenyl)but-2-enamide]
covalent modification of TEC kinase by mass spectrometry (TEC kinase): reaction was complete; also recorded: covalent modification of TEC kinase at Cys449 | covalent modification of ErbB4 by mass spectrometry (Erbb4 kinase domain): covalent modification of ErbB4 | BTK Inhibition Type (BTK [1]): irreversible

C=CC(=O)Nc1cccc(Nc2nc(Nc3ccccc3)ncc2C)c1 [Compound I-7, N-(3-(5-methyl-2-(phenylamino)pyrimidin-4-ylamino)phenyl) acrylamide]
covalent modification of JAK3 by mass spectrometry (JAK3 kinase): reaction was not entirely complete; also recorded: covalent modification of JAK-3 kinase at Cys909 | covalent modification of TEC kinase by mass spectrometry (TEC kinase): reaction was complete; also recorded: covalent modification of TEC kinase at Cys449 | time BTK protein remains occupied after compound removal (BTK [2]): over 8 hours | positive shift of centroid mass of BTK (BTK [3]; intact BTK incubated 1 hr with 10× fold excess of compound): about 371.1 Da | covalent modification of BTK by mass spectrometry (BTK [3]; intact BTK, 1 hr, 10× fold excess of compound): complete modification; also recorded: covalent modification of BTK | BTK Inhibition Type (BTK [1]): irreversible | concentration at which >50% of BTK is occupied (BTK [4]): A (greater than 1 nM) | concentration at which >90% of BTK is occupied (BTK [4]): B (greater than 10 nM)

CCC(=O)Nc1cccc(Nc2nc(Nc3ccccc3)ncc2C)c1 [I^R-7, N-(3-(5-methyl-2-(phenylamino)pyrimidin-4-ylamino)phenyl) propionamide]
biochemical activity against BTK (BTK [5]): biochemically inactive against BTK

C=CC(=O)Nc1cccc(Nc2ncc(C)c(Nc3cccc(C)c3)n2)c1 [Compound I-2, N-(3-(5-methyl-4-(m-tolylamino)pyrimidin-2-ylamino)phenyl) acrylamide]
covalent modification of TEC kinase by mass spectrometry (TEC kinase): covalent modification of TEC kinase at Cys449; also recorded: reaction was complete | BTK Inhibition Type (BTK [1]): irreversible

C=CC(=O)Nc1cccc(Oc2nc(Nc3ccc(OC)nc3)ncc2C(=O)NC2CC2)c1 [Compound I-176, 4-(3-acrylamidophenoxy)-2-(6-methoxypyridin-3-ylamino)-pyrimidine-5-carboxylic acid cyclopropylamide]
IC50 (EGFR-WT): < 10 nM | IC50 (BTK [5]; Omnia assay, [BTK]=5 nM, read-out: BTK Inhibition): < 10 nM | IC50 (BTK [6]): 100 to 1000 nM | IC50 (ITK): 10 to 100 nM

Cc1cnc(Nc2cccc(S(N)(=O)=O)c2)nc1Nc1ccc2c(c1)CCN(C(=O)CCl)C2 [Compound I-11, 3-(4-(2-(2-chloroacetyl)-1,2,3,4-tetrahydroisoquinolin-6-ylamino)-5-methylpyrimidin-2-ylamino)benzenesulfonamide]
covalent modification of JAK3 by mass spectrometry (JAK3 kinase): measurable modification | covalent modification of ErbB4 by mass spectrometry (Erbb4 kinase domain): covalent modification of ErbB4
